# From patent US10214531B2 (Institute for Drug Discovery, LLC, priority 2013, dated 2019)
# Counter-ions that a name gives are not always drawn.
# Molecular target: recombinant human AMCase (Homo sapiens, UniProt Q9BZP6)
# Assay: Human AMCase Activity Assay
# Assay type: biochemical
# Details: recombinant hAMCase, 4-methylumbelliferyl chitobioside substrate, citrate buffer pH 5.2, 37° C., 60 minutes; read-out: Activity (IC50 value key)
# Outline: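 Recombinant human enzyme with fluorogenic 4-methylumbelliferyl β-D-N,N′-diacetylchitobioside substrate in citrate buffer, pH 5.2, 60 min at 37 °C in the dark with shaking. Read-out is 4MU fluorescence at 460 nm.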
# Chain of recombinant human AMCase (Q9BZP6 22-476): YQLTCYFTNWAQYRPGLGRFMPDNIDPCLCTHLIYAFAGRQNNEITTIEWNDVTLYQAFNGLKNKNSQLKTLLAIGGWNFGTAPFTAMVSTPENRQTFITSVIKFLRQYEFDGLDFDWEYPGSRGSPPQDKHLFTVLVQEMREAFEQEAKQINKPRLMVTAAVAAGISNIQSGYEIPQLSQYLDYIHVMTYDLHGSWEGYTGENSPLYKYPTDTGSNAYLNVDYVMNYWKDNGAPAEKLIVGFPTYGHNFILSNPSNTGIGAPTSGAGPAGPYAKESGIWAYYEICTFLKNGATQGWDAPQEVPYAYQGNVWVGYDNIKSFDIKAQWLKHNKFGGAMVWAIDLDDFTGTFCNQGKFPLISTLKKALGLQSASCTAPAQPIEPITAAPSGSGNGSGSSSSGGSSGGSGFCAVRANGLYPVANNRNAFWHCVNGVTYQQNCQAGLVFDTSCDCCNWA
structure (smiles),measurement,value
"CN(CCc1c(Cl)cccc1Cl)C1CCN(c2nc(N)n[nH]2)CC1 [Example 184, 1-(3-amino-1H-1,2,4-triazol-5-yl)-N-(2,6-dichlorophenethyl)-N-methylpiperidin-4-amine]",IC50,1 to 10 µM
"Nc1n[nH]c(N2CCC(N(CCc3ccc(Cl)cc3)CC(F)(F)F)CC2)n1 [Example 186, 1-(3-amino-1H-1,2,4-triazol-5-yl)-N-(4-chlorophenethyl)-N-(2,2,2-trifluoroethyl)piperidin-4-amine hydrochloride]",IC50,10 to 100 µM
"Nc1n[nH]c(N2CCC(NS(=O)(=O)Cc3cccc(Br)c3)CC2)n1 [Example 191, N-(1-(3-amino-1H-1,2,4-triazol-5-yl)piperidin-4-yl)-1-(3-bromophenyl)methanesulfonamide]",IC50,1 to 10 µM
"Nc1n[nH]c(N2CCC(NS(=O)(=O)Cc3cccc(C(F)(F)F)c3)CC2)n1 [Example 192, N-(1-(3-amino-1H-1,2,4-triazol-5-yl)piperidin-4-yl)-1-(3-(trifluoromethyl)phenyl)methanesulfonamide]",IC50,1 to 10 µM
"Nc1n[nH]c(N2CCN(CCOc3ccccc3C(F)(F)F)CC2)n1 [Example 193, 5-(4-(2-(2-(trifluoromethyl)-phenoxy)ethyl)piperazin-1-yl)-1H-1,2,4-triazol-3-amine]",IC50,> 100 µM
"Nc1n[nH]c(N2CCN(CCOc3c(Cl)cccc3Cl)CC2)n1 [Example 194, 5-(4-(2-(2,6-dichlorophenoxy)ethyl)piperazin-1-yl)-1H-1,2,4-triazol-3-amine]",IC50,10 to 100 µM
"Nc1n[nH]c(N2CCC(C(=O)NCc3cccc4ccccc34)CC2)n1 [Example 195, 1-(3-amino-1H-1,2,4-triazol-5-yl)-N-(naphthalen-1-ylmethyl)piperidine-4-carboxamide]",IC50,> 100 µM
"Nc1n[nH]c(N2CCC(C(=O)NCc3cccc(F)c3)CC2)n1 [Example 196, 1-(3-amino-1H-1,2,4-triazol-5-yl)-N-(3-fluorobenzyl)piperidine-4-carboxamide]",IC50,> 100 µM
"COc1ccccc1CNC(=O)C1CCN(c2nc(N)n[nH]2)CC1 [Example 197, 1-(3-amino-1H-1,2,4-triazol-5-yl)-N-(2-methoxybenzyl)piperidine-4-carboxamide]",IC50,> 100 µM
"Nc1n[nH]c(N2CCC(C(=O)NCc3ccccc3Cl)CC2)n1 [Example 198, 1-(3-amino-1H-1,2,4-triazol-5-yl)-N-(2-chlorobenzyl)piperidine-4-carboxamide]",IC50,> 100 µM
"Nc1n[nH]c(N2CCC(C(=O)NCc3ccc(F)c(F)c3)CC2)n1 [Example 199, 1-(3-amino-1H-1,2,4-triazol-5-yl)-N-(3,4-difluorobenzyl)piperidine-4-carboxamide]",IC50,> 100 µM
"CC(Cc1ccc(Cl)cc1)N(C)C1CCN(c2nc(N)n[nH]2)CC1 (centres unmarked) [Example 200, 1-(3-amino-1H-1,2,4-triazol-5-yl)-N-(1-(4-chlorophenyl)propan-2-yl)-N-methylpiperidin-4-amine]",IC50,< 0.1 µM
"COc1ccc(CNC(=O)C2CCN(c3nc(N)n[nH]3)CC2)c(OC)c1 [Example 201, 1-(3-amino-1H-1,2,4-triazol-5-yl)-N-(2,4-dimethoxybenzyl)piperidine-4-carboxamide]",IC50,> 100 µM
"Cc1oc(C(F)(F)F)cc1CNC(=O)C1CCN(c2nc(N)n[nH]2)CC1 [Example 202, 1-(3-amino-1H-1,2,4-triazol-5-yl)-N-((2-methyl-5-(trifluoromethyl)furan-3-yl)methyl)piperidine-4-carboxamide]",IC50,> 100 µM
"Cc1ccc(C)c(CNC(=O)C2CCN(c3nc(N)n[nH]3)CC2)c1 [Example 204, 1-(3-amino-1H-1,2,4-triazol-5-yl)-N-(2,5-dimethylbenzyl)piperidine-4-carboxamide]",IC50,> 100 µM
"Nc1n[nH]c(N2CCC(C(=O)NCc3ccc(OC(F)(F)F)cc3)CC2)n1 [Example 205, 1-(3-amino-1H-1,2,4-triazol-5-yl)-N-(4-(trifluoromethoxy)benzyl)piperidine-4-carboxamide]",IC50,> 100 µM
"COc1ccc(CNC(=O)C2CCN(c3nc(N)n[nH]3)CC2)cc1 [Example 206, 1-(3-amino-1H-1,2,4-triazol-5-yl)-N-(4-methoxybenzyl)piperidine-4-carboxamide]",IC50,> 100 µM
"Nc1n[nH]c(N2CCC(C(=O)NCC3CCC(F)(F)CC3)CC2)n1 [Example 207, 1-(3-amino-1H-1,2,4-triazol-5-yl)-N-((4,4-difluorocyclohexyl)methyl)piperidine-4-carboxamide]",IC50,> 100 µM
"Nc1n[nH]c(N2CCC(CNC(=O)c3cccc(F)c3)CC2)n1 [Example 208, N-((1-(3-amino-1H-1,2,4-triazol-5-yl)piperidin-4-yl)methyl)-3-fluorobenzamide]",IC50,> 100 µM
"Nc1n[nH]c(N2CCC(CNC(=O)c3cc(Br)cc(Br)c3)CC2)n1 [Example 209, N-((1-(3-amino-1H-1,2,4-triazol-5-yl)piperidin-4-yl)methyl)-3,5-dibromobenzamide]",IC50,> 100 µM
"Cc1cccc(C(=O)NCC2CCN(c3nc(N)n[nH]3)CC2)c1C [Example 210, N-((1-(3-amino-1H-1,2,4-triazol-5-yl)piperidin-4-yl)methyl)-2,3-dimethylbenzamide]",IC50,> 100 µM
"COc1ccc(C(=O)NCC2CCN(c3nc(N)n[nH]3)CC2)cc1OC [Example 211, N-((1-(3-amino-1H-1,2,4-triazol-5-yl)piperidin-4-yl)methyl)-3,4-dimethoxybenzamide]",IC50,> 100 µM
"Cc1ccccc1C(=O)NCC1CCN(c2nc(N)n[nH]2)CC1 [Example 212, N-((1-(3-amino-1H-1,2,4-triazol-5-yl)piperidin-4-yl)methyl)-2-methylbenzamide]",IC50,> 100 µM
"Nc1n[nH]c(N2CCC(CNC(=O)c3ccc(F)cc3F)CC2)n1 [Example 213, N-((1-(3-amino-1H-1,2,4-triazol-5-yl)piperidin-4-yl)methyl)-2,4-difluorobenzamide]",IC50,> 100 µM
"Nc1n[nH]c(N2CCN(C(=O)CC(N)c3ccccc3F)CC2)n1 (centres unmarked) [Example 214, 3-amino-1-(4-(3-amino-1H-1,2,4-triazol-5-yl)piperazin-1-yl)-3-(2-fluorophenyl)propan-1-one dihydrochloride]",IC50,> 100 µM
"Nc1n[nH]c(N2CCN(C(=O)CC(N)c3ccc(F)cc3)CC2)n1 (centres unmarked) [Example 215, 3-amino-1-(4-(3-amino-1H-1,2,4-triazol-5-yl)piperazin-1-yl)-3-(4-fluorophenyl)propan-1-one dihydrochloride]",IC50,> 100 µM
"CCC(CN1CCN(c2nc(N)n[nH]2)CC1)Oc1ccc(Cl)cc1 (centres unmarked) [Example 216, 5-(4-(2-(4-chlorophenoxy)butyl)piperazin-1-yl)-1H-1,2,4-triazol-3-aminedihydrochloride]",IC50,1 to 10 µM
"Nc1n[nH]c(N2CCC(NC(=O)Nc3cc(Cl)c(Cl)cc3Cl)CC2)n1 [Example 217, 1-(1-(3-amino-1H-1,2,4-triazol-5-yl)piperidin-4-yl)-3-(2,4,5-trichlorophenyl)urea]",IC50,> 100 µM
Nc1n[nH]c(N2CCC(CNC(=O)Nc3cccc(Cl)c3)CC2)n1 [Example 218],IC50,> 100 µM
"Nc1n[nH]c(N2CCC(CNC(=O)c3ccc(F)c(F)c3)CC2)n1 [Example 220, N-((1-(3-amino-1H-1,2,4-triazol-5-yl)piperidin-4-yl)methyl)-3,4-difluorobenzamide]",IC50,> 100 µM
"Nc1n[nH]c(N2CCN(C(=O)[C@@H](O)Cc3ccc(Cl)cc3)CC2)n1 [Example 221, (S)-1-(4-(3-amino-1H-1,2,4-triazol-5-yl)piperazin-1-yl)-3-(4-chlorophenyl)-2-hydroxypropan-1-one]",IC50,10 to 100 µM
"CC(=O)NC(CC(=O)N1CCN(c2nc(N)n[nH]2)CC1)c1cccc(F)c1 (centres unmarked) [Example 222, N-(3-(4-(3-amino-1H-1,2,4-triazol-5-yl)piperazin-1-yl)-1-(3-fluorophenyl)-3-oxopropyl)acetamide]",IC50,> 100 µM
"Nc1n[nH]c(N2CCN(CCCc3ccc(C(F)(F)F)cc3)C(CCCO)C2)n1 (centres unmarked) [Example 223, 3-(4-(3-amino-1H-1,2,4-triazol-5-yl)-1-(3-(4-(trifluoromethyl)phenyl)propyl)piperazin-2-yl)propan-1-ol]",IC50,1 to 10 µM
"CC(=O)OCCCC1CN(c2nc(N)n[nH]2)CCN1CCCc1ccc(Br)cc1 (centres unmarked) [Example 224, 3-(4-(3-amino-1H-1,2,4-triazol-5-yl)-1-(3-(4-bromophenyl)propyl)piperazin-2-yl)propylacetate]",IC50,0.1 to 1 µM
"Nc1n[nH]c(N2CCN(CCCc3ccc(Br)cc3)C(CCCO)C2)n1 (centres unmarked) [Example 225, 3-(4-(3-amino-1H-1,2,4-triazol-5-yl)-1-(3-(4-bromophenyl)propyl)piperazin-2-yl)propan-1-ol]",IC50,1 to 10 µM
Nc1n[nH]c(N2CCN(CCCc3ccccc3)C(CCCO)C2)n1 (centres unmarked) [Example 226],IC50,10 to 100 µM
"CN(CCc1ccc(Cl)cc1)C1(CCO)CCN(c2nc(N)n[nH]2)CC1 [Example 228, 2-(1-(3-amino-1H-1,2,4-triazol-5-yl)-4-((4-chlorophenethyl)(methyl)amino)piperidin-4-yl)ethanol]",IC50,0.1 to 1 µM
"CC(C)(O)CCC1CN(c2nc(N)n[nH]2)CCN1CCCc1ccc(Br)cc1 (centres unmarked) [Example 229, 4-(4-(3-amino-1H-1,2,4-triazol-5-yl)-1-(3-(4-bromophenyl)propyl)piperazin-2-yl)-2-methylbutan-2-ol]",IC50,1 to 10 µM
"CC1CN(c2nc(N)n[nH]2)CCC1N(C)CCc1ccc(Br)cc1 (centres unmarked) [Example 230, 1-(3-amino-1H-1,2,4-triazol-5-yl)-N-(4-bromophenethyl)-N,3-dimethylpiperidin-4-amine dihydrochloride]",IC50,0.1 to 1 µM
"CCC(Cc1ccc(Cl)cc1)N(CC)C1CCN(c2nc(N)n[nH]2)CC1 (centres unmarked) [Example 232, 1-(3-amino-1H-1,2,4-triazol-5-yl)-N-(1-(4-chlorophenyl)butan-2-yl)-N-ethylpiperidin-4-amine dihydrochloride]",IC50,0.1 to 1 µM
"Nc1n[nH]c(N2CCN(C(=O)CC(N)c3cccc(F)c3)CC2)n1 (centres unmarked) [Example 233, 3-amino-1-(4-(3-amino-1H-1,2,4-triazol-5-yl)piperazin-1-yl)-3-(3-fluorophenyl)propan-1-one]",IC50,> 100 µM
